Experimental findings from ChEMBL document CHEMBL3875196, “Novel pyrazolo[1,5-a]pyridines with improved aqueous solubility as p110α-selective PI3 kinase inhibitors” (Bioorg Med Chem Lett, 2017) are described below.

What is called solubility is how much of the substance goes into solution per volume. A high value points to much dissolved substance. Usually IC50 stands for the concentration needed to halve the response being measured.

Series [1] in a line: Solubility of the compound in water by HPLC analysis. It is filed as physicochemical.
The target in series [2] is T1, Phosphatidylinositol 4,5-bisphosphate 3-kinase catalytic subunit delta isoform (Homo sapiens, UniProt O00329).
T1 sequence (O00329 whole entry): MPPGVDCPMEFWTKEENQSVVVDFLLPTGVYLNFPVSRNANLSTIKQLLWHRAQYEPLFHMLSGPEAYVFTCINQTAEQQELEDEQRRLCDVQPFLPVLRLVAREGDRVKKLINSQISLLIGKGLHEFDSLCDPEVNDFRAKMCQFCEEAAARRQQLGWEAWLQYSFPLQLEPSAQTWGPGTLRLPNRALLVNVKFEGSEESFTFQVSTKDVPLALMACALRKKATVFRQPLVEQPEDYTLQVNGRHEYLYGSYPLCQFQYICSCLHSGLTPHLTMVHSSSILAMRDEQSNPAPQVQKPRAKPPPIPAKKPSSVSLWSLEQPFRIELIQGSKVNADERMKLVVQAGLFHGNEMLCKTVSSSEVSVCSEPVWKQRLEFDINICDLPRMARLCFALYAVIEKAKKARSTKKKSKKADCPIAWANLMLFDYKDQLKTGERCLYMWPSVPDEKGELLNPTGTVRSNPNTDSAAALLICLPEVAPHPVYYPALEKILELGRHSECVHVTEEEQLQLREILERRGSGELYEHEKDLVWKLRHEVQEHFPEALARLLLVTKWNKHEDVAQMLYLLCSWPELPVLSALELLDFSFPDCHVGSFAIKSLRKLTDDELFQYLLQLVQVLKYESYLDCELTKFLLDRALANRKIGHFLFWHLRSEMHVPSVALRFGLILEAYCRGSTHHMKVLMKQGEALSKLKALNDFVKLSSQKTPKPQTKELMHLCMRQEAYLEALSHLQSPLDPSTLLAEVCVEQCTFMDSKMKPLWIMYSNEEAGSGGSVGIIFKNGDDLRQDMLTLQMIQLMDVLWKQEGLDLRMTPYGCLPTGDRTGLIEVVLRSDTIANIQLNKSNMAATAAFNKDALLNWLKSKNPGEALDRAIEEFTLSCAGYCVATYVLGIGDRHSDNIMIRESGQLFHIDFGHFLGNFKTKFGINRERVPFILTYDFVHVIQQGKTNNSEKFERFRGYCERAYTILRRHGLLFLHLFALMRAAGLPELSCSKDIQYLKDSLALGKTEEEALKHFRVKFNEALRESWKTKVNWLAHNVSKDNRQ
As to the kind of experiment: Inhibition of p110delta (unknown origin) using L-alpha phosphatidylinositol as substrate after 1 hr in presence of [gamma33]-ATP by thin layer chromatographic analysis.

Series [3] can be described thus: Antiproliferative activity against wild type p110alpha expressing human NZB5 cells after 5 days by [3H]-thymidine incorporation assay. It is filed as functional, cell-based.
Series [4] is described as follows: Inhibition of recombinant mouse p110alpha/N-terminal His-tagged human p85alpha expressed in baculovirus infected Sf21 cells using L-alpha-phosphatidylinositol as substrate after 1 hr in presence of [gamma33]-ATP by thin layer chromatographic analysis.
A short description of series [5]: Selectivity ratio of IC50 for human p110beta to IC50 for recombinant mouse p110alpha/N-terminal His-tagged human p85alpha.
Series [6] is described as follows: Selectivity ratio of IC50 for p110delta (unknown origin) to IC50 for recombinant mouse p110alpha/N-terminal His-tagged human p85alpha.
The next series addresses PI3K p110 beta/p85 alpha (Homo sapiens, UniProt P42338). As to the kind of experiment: Inhibition of recombinant human p110beta/N-terminal His-tagged human p85alpha expressed in baculovirus infected sf cells using L-alpha-phosphatidylinositol as substrate after 1 hr in presence of [gamma33]-ATP by thin layer chromatographic analysis.
Series [7] is described as follows: Antiproliferative activity against wild type p110alpha expressing human NZOV9 cells after 5 days by [3H]-thymidine incorporation assay. Type of series: functional, cell-based. In general terms: Dividing cells build labelled thymidine or BrdU into new DNA.
The test system of the next series is Mus musculus. As to the kind of experiment: Toxicity in NIH3 mouse assessed as change in body weight at 20 to 40 mg/kg, ip. Type of series: organism-based. The following applies: in vivo.
Series [8] addresses Phosphatidylinositol 4,5-bisphosphate 3-kinase catalytic subunit alpha isoform (Homo sapiens, UniProt P42336, H1047R). Briefly: Inhibition of p110alpha H1047R mutant in human HCT116 cells assessed as suppression of PKB phosphorylation at Ser473 preincubated for 15 mins followed by insulin stimulation for 5 mins by immunoblot analysis. Type of series: cell-based, HCT-116. (In general: In western blotting, separated proteins are transferred to a membrane and probed.)

Sequence of Phosphatidylinositol 4,5-bisphosphate 3-kinase catalytic subunit alpha isoform (P42336 whole entry H1047R, canonical isoform): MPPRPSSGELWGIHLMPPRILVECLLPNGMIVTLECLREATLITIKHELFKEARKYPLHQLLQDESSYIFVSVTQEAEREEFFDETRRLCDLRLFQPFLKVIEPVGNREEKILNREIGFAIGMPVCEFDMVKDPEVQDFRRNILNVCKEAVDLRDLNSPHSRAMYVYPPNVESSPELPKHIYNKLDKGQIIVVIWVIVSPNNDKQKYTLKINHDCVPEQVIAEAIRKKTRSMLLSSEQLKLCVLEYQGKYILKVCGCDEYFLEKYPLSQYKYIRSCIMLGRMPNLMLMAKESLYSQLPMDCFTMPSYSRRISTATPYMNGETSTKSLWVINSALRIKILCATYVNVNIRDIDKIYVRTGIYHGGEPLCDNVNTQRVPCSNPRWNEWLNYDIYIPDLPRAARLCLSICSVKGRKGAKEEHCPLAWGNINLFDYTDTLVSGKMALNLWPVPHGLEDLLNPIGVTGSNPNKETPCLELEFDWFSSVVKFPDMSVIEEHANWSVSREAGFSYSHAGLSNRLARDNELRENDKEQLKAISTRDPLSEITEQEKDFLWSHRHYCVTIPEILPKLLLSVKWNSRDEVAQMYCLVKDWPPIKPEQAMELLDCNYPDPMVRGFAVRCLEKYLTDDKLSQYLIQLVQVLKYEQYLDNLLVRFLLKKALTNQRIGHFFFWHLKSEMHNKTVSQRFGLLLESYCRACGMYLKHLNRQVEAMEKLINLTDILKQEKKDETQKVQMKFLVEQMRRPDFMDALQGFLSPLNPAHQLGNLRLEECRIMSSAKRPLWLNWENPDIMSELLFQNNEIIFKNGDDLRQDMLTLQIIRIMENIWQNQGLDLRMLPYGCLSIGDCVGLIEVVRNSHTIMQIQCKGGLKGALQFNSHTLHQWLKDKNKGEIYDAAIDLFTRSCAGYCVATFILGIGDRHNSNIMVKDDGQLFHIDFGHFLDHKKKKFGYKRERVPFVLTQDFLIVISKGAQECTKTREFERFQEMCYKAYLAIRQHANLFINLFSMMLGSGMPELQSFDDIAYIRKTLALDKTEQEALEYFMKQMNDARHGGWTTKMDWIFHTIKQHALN
Sequence of PI3K p110 beta/p85 alpha (P27986 whole entry): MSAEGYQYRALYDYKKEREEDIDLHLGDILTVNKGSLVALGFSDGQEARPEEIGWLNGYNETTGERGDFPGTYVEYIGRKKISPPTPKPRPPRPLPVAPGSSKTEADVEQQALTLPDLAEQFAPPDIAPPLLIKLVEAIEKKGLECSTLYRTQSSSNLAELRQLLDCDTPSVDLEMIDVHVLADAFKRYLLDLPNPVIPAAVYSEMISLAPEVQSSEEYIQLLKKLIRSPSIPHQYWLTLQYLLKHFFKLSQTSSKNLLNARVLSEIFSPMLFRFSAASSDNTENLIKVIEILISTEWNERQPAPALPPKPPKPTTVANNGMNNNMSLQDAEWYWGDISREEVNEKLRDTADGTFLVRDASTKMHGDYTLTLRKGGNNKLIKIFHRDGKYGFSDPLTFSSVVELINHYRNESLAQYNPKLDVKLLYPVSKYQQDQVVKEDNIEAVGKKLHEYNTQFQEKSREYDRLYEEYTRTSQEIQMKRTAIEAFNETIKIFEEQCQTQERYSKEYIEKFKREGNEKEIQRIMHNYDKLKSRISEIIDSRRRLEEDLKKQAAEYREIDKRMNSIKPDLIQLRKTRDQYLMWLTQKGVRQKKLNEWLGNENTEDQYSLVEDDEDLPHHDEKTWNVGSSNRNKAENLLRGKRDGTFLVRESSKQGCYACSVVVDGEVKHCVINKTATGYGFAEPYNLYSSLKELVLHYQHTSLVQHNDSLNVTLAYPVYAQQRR
Sequence of PI3K p110 beta/p85 alpha (P42338 whole entry): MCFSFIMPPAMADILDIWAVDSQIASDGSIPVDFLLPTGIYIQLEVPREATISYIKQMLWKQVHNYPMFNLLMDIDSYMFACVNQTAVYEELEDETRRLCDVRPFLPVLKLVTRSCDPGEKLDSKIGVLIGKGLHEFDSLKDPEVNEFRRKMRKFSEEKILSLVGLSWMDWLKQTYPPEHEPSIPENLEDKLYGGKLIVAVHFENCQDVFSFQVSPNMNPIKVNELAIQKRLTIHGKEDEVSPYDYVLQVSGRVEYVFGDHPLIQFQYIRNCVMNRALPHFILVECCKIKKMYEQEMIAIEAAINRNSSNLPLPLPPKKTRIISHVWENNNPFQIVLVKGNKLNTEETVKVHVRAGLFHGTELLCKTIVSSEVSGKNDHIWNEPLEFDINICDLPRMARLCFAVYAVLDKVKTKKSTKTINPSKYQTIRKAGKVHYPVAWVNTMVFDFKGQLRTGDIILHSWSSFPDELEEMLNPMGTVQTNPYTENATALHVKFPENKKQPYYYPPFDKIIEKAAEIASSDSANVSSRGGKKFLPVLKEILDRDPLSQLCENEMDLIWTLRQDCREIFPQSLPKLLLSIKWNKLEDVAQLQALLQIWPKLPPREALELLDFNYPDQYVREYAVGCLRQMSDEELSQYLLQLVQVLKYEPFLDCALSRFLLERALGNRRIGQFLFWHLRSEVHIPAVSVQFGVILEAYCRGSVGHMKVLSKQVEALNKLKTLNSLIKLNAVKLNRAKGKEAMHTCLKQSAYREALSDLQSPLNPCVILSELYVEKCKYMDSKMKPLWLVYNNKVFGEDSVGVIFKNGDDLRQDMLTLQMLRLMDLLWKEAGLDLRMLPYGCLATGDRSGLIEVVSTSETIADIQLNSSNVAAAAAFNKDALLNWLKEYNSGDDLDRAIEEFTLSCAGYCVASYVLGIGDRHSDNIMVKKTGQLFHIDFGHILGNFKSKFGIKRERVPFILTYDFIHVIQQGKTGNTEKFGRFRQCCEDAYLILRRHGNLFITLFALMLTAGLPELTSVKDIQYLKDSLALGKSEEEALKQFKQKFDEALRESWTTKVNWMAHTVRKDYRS

For the compound `CN(CCc1ccccn1)c1ccc([N+](=O)[O-])cc1S(=O)(=O)N(C)/N=C/c1cnn2ccc(C#N)cc12.Cl`, the solubility in series [1] was 5.7 µg/mL.
On the same count and under the same terms, as for `CN(CCc1c[nH]cn1)c1ccc([N+](=O)[O-])cc1S(=O)(=O)N(C)/N=C/c1cnn2ccc(C#N)cc12.Cl`, the figure is 900 µg/mL; as for `CN(CCc1ccncc1)c1ccc([N+](=O)[O-])cc1S(=O)(=O)N(C)/N=C/c1cnn2ccc(C#N)cc12.Cl`, 45 µg/mL.
`C/C(=N\N(C)S(=O)(=O)c1cc([N+](=O)[O-])ccc1N(C)Cc1ccccn1)c1cnn2ccc(C#N)cc12`: the IC50 was 575 nM in [2]; 2200 nM in series [3]; 5.2 nM in series [4]; 9400 nM on PI3K p110 beta/p85 alpha; 2300 nM in series [7]. Moreover, the Ratio IC50 in series [5] came out at 40; in [6] it was 100.
As to `CN(CCc1c[nH]cn1)c1ccc([N+](=O)[O-])cc1S(=O)(=O)N(C)/N=C/c1cnn2ccc(C#N)cc12`, the IC50 was 88 nM in series [2]; 3 nM in series [3]; 18 nM in [4]; 740 nM at PI3K p110 beta/p85 alpha; 67 nM in [8]; 57 nM in [7]. In addition, the Activity entry in the series with Mus musculus is listed as “Toxic”.
For the compound `C/C(=N\NS(=O)(=O)c1cc([N+](=O)[O-])ccc1N(C)Cc1ccccn1)c1cnn2ccc(Br)cc12`, the IC50 in series [2] turned out to be 292 nM; in series [3] it was 96 nM; in [4] it was 7.3 nM; at PI3K p110 beta/p85 alpha it was 5600 nM; in [7] it was 2800 nM. Further, the Ratio IC50 in series [5] was determined as 800; in series [6], 2000.
On to `CN(C)CCCN(C)c1ccc([N+](=O)[O-])cc1S(=O)(=O)N(C)/N=C/c1cnn2ccc(C#N)cc12`, for which the IC50 turned out to be 100 nM in [2]; 4 nM in series [3]; 16 nM in series [4]; 76 nM at PI3K p110 beta/p85 alpha; 72 nM in [8]; 25 nM in series [7]. In addition, the Activity result with Mus musculus is “Toxic”.
Consider `CN(CCc1ccccn1)c1ccc([N+](=O)[O-])cc1S(=O)(=O)N(C)/N=C/c1cnn2ccc(C#N)cc12`, for which the IC50 in series [2] is 60 nM; in series [3] it was 5 nM; in [4], 9 nM; on PI3K p110 beta/p85 alpha, 410 nM; in series [7], 410 nM.
For `CN(/N=C/c1cnn2ccc(Br)cc12)S(=O)(=O)c1cc([N+](=O)[O-])ccc1OCCN1CCOCC1`, the IC50 in series [2] was found to be 350 nM; in series [3] it was 270 nM; in series [4], 51 nM; at PI3K p110 beta/p85 alpha it was 2900 nM; in [7], 550 nM.
For `CN(Cc1ccccn1)c1ccc([N+](=O)[O-])cc1S(=O)(=O)N(C)/N=C/c1cnn2ccc(C#N)cc12`, in that order: 130 nM, 90 nM, 10 nM, 450 nM and 330 nM.
The compound `CN(CCn1ccnc1)c1ccc([N+](=O)[O-])cc1S(=O)(=O)N(C)/N=C/c1cnn2ccc(C#N)cc12.Cl` showed a solubility in series [1] of 1000 µg/mL.
For `CN(CCN)c1ccc([N+](=O)[O-])cc1S(=O)(=O)N(C)/N=C/c1cnn2ccc(C#N)cc12`, the IC50 in series [2] is 470 nM; in [3] it was 29 nM; in series [4] it was 50 nM; on PI3K p110 beta/p85 alpha, > 1000 nM; in series [7] it was 57 nM.
For the compound `CN(/N=C/c1cnn2ccc(C#N)cc12)S(=O)(=O)c1cc([N+](=O)[O-])ccc1OCCN1CCOCC1`, the IC50 came out at 94 nM in series [2]; 440 nM in [3]; 21 nM in series [4]; 220 nM on PI3K p110 beta/p85 alpha; 410 nM in series [7].
In turn, `CN(CCc1cccnc1)c1ccc([N+](=O)[O-])cc1S(=O)(=O)N(C)/N=C/c1cnn2ccc(C#N)cc12.Cl` displayed a solubility in series [1] of 24 µg/mL.
As for `C/C(=N\NS(=O)(=O)c1cc([N+](=O)[O-])ccc1N(C)CCN(C)C)c1cnn2ccc(C#N)cc12`, the IC50 in series [2] worked out at 676 nM; in series [3], 460 nM; in [4] it was 51 nM; on PI3K p110 beta/p85 alpha it was 900 nM; in [7] it was 2000 nM.
As to `CN(C)CCCN(C)c1ccc([N+](=O)[O-])cc1S(=O)(=O)N(C)/N=C/c1cnn2ccc(C#N)cc12.Cl`, in series [1], the concentration in solution (solubility) came to 1200 µg/mL.
For the compound `CN(CCc1ccncc1)c1ccc([N+](=O)[O-])cc1S(=O)(=O)N(C)/N=C/c1cnn2ccc(C#N)cc12`, the 50% inhibitory concentration (IC50) in series [2] was 61 nM; in series [3] it was < 2 nM; in [4], 17 nM; on PI3K p110 beta/p85 alpha, 160 nM; in [7] it was 250 nM.
Consider `CN(CCn1ccnc1)c1ccc([N+](=O)[O-])cc1S(=O)(=O)N(C)/N=C/c1cnn2ccc(C#N)cc12`, for which the IC50 in series [2] was found to be 100 nM; in series [3] it was 5 nM; in series [4], 31 nM; on PI3K p110 beta/p85 alpha it was 150 nM; in series [8], 111 nM; in series [7] it was 45 nM.
For the compound `CN(CCCN1CCOCC1)c1ccc([N+](=O)[O-])cc1S(=O)(=O)N(C)/N=C/c1cnn2ccc(C#N)cc12`, the IC50 in series [2] is 170 nM; in series [3] it was 71 nM; in series [4], 26 nM; on PI3K p110 beta/p85 alpha, 510 nM; in series [7], 560 nM.
For `CN(C)CCN(C)c1ccc(C#N)cc1S(=O)(=O)N(C)/N=C/c1cnn2ccc(C#N)cc12`, in that order: 380 nM, 55 nM, 81 nM, 2000 nM and 47 nM.
For `CN(CCCN1CCOCC1)c1ccc(C#N)cc1S(=O)(=O)N(C)/N=C/c1cnn2ccc(C#N)cc12`, in that order: 370 nM, 21 nM, 240 nM, > 1000 nM and 360 nM.
For `CN(C)CCN(C)c1ccc([N+](=O)[O-])cc1C(=O)N(C)/N=C/c1cnn2ccc(C#N)cc12`, in that order: 68 nM, 5600 nM, 580 nM, 230 nM and 3100 nM.
With `CN(C)CCOc1ccc([N+](=O)[O-])cc1S(=O)(=O)N(C)/N=C/c1cnn2ccc(C#N)cc12`, the 50% inhibitory concentration (IC50) in series [2] was > 1000 nM; in series [3], 100 nM; in series [4] it was 75 nM; at PI3K p110 beta/p85 alpha, > 1000 nM; in series [7] it was 170 nM.
